Test results as given in patent EP0297456A2, “Immunosuppressant peptides” (MERRELL DOW PHARMACEUTICALS INC., priority 1987, dated 1989).

Tests used:
[1] = tested on: Mixed Lymphocyte Cultures (C57BL/6 and DBA/2 leukocytes); assay: Inhibition of ³H-thymidine incorporation in mixed lymphocyte cultures; assay type: cell-based; conditions: 120 hour incubation
Method: Inhibition of ³H-Thymidine Incorporation in Mixed Lymphocyte Cultures by Various Peptides
Spleens were aseptically removed and teased apart in RPMI 1640 culture media to obtain single cell suspensions. Erythrocytes were lysed by suspending cells in ACK buffer (0.155 M NH₄Cl, 0.1 mM EDTA, 0.01 M KHCO₃) and the remaining leukocytes washed. C57BL/6 (5 x 10⁵cells) and DBA/2 (5 x 10⁵cells) leukocytes were co-cultured in 0.1 ml RPMI-1640, supplemented with 2% fetal calf serum (FCS), in 96-well microtiter plates. Various concentrations of peptides were added at the initiation of cell culture. Following a 120 hour incubation (37°C), including a pulse with 1 µCi of [³H]TdR in the final 18 hours of culture, the cells were harvested with an automated cell harvester unit onto filter paper strips and placed in ACS scintillation fluid (Amersham, Oakville, Ontario). The amount of [³H]TdR incorporation was then measured in a Beckman LS 7800 liquid scintillation counter.

[2] = tested on: Anti-T₃ Stimulated Lymphocytes (Human peripheral blood mononuclear leukocytes MNL); assay: Inhibition of ³H-thymidine incorporation in anti-T₃ stimulated lymphocytes; assay type: cell-based; conditions: 72 hour incubation
Method: Inhibition of ³H-Thymidine Incorporation in Anti-T₃ Stimulated Lymphocytes by Various Peptides
Human peripheral blood mononuclear leukocytes MNL were isolated by Ficoll-Hypaque density sedimentation. MNL ([…]) were cultured with anti-T₃ (1:10,000 dilution; Ortho Diagnostics) in 0.1 ml DMEM, supplemented with 2% FCS, in 96-well microtiter plates. Following a 72 hour incubation (37°C), including a pulse with 1 µCi of [³H]TdR in the final 18 hours of culture, the cells were harvested and counted as described in Example 6.

H-LRKLRKRLLRDADDL-NH2 [Example 1, peptide]
% Inhibition ([1]; 9 µM BSA-conjugated peptide): 59%
³H-Thymidine Incorporation (cpm) ([1]; 9 µM BSA-conjugated peptide): 3267 ± 457 cpm
% Inhibition ([1]; 18 µM BSA-conjugated peptide): 73%
³H-Thymidine Incorporation (cpm) ([1]; 18 µM BSA-conjugated peptide): 1800 ± 412 cpm
% Inhibition ([2]; 9 µM BSA-conjugated peptide): 33%
³H-Thymidine Incorporation (cpm) ([2]; 9 µM BSA-conjugated peptide): 38521 ± 5349 cpm
% Inhibition ([2]; 18 µM BSA-conjugated peptide): 50%
³H-Thymidine Incorporation (cpm) ([2]; 18 µM BSA-conjugated peptide): 21984 ± 3824 cpm

H-TRLTRKRGLKLATAL-NH2 [Example 2, peptide]
% Inhibition ([1]; 14 µM BSA-conjugated peptide): 45%
³H-Thymidine Incorporation (cpm) ([1]; 14 µM BSA-conjugated peptide): 4406 ± 848 cpm
% Inhibition ([1]; 28 µM BSA-conjugated peptide): 67%
³H-Thymidine Incorporation (cpm) ([1]; 28 µM BSA-conjugated peptide): 2209 ± 1471 cpm
% Inhibition ([2]; 14 µM BSA-conjugated peptide): 23%
³H-Thymidine Incorporation (cpm) ([2]; 14 µM BSA-conjugated peptide): 44151 ± 2151 cpm
% Inhibition ([2]; 28 µM BSA-conjugated peptide): 54%
³H-Thymidine Incorporation (cpm) ([2]; 28 µM BSA-conjugated peptide): 20041 ± 3331 cpm

H-LQNRRGLDLLFLKEGGL-NH2 [Example 3, peptide]
% Inhibition ([1]; 12 µM BSA-conjugated peptide): 57%
³H-Thymidine Incorporation (cpm) ([1]; 12 µM BSA-conjugated peptide): 3417 ± 263 cpm
% Inhibition ([1]; 24 µM BSA-conjugated peptide): 80%
³H-Thymidine Incorporation (cpm) ([1]; 24 µM BSA-conjugated peptide): 1328 ± 421 cpm
% Inhibition ([2]; 12 µM BSA-conjugated peptide): 45%
³H-Thymidine Incorporation (cpm) ([2]; 12 µM BSA-conjugated peptide): 31667.±.4729 cpm
% Inhibition ([2]; 24 µM BSA-conjugated peptide): 68%
³H-Thymidine Incorporation (cpm) ([2]; 24 µM BSA-conjugated peptide): 14027 ± 867 cpm

H-Glu-Val-Val-Leu-Gln-Asn-Arg-Arg-Gly-Leu-Leu-OH (H-EVVLQNRRGLL-OH) [Example 4, peptide]
% Inhibition ([1]; 4 µM BSA-conjugated peptide): 28%
³H-Thymidine Incorporation (cpm) ([1]; 4 µM BSA-conjugated peptide): 5751 ± 407 cpm
% Inhibition ([1]; 8 µM BSA-conjugated peptide): 54%
³H-Thymidine Incorporation (cpm) ([1]; 8 µM BSA-conjugated peptide): 3063 ± 372 cpm
% Inhibition ([2]; 4 µM BSA-conjugated peptide): 5%
³H-Thymidine Incorporation (cpm) ([2]; 4 µM BSA-conjugated peptide): 54331 ± 4717 cpm
% Inhibition ([2]; 8 µM BSA-conjugated peptide): 11%
³H-Thymidine Incorporation (cpm) ([2]; 8 µM BSA-conjugated peptide): 39248 ± 5251 cpm
